We go through one compound from PMC9130233, “An inhibitor of RORγ for chronic pulmonary obstructive disease treatment” (Scientific Reports, 2022).

Test [1] concerns T1, human RORγ.
T1 construct: RORC-LBD region 229-497aa; made in house; host or cells: Escherichia coli BL21-DE3
Briefly: Dissociation assay, jump dilution method (TR-FRET), human. Type of test: binding. Here is the method:
To understand the inverse agonist behavior at the molecular level, interaction with the nuclear receptor RORγ was analyzed in binding assays by estimating its dissociation constant (Koff) and half-life (t1/2). The binding of a ligand stabilizes the conformation of the LBD while binding of a cofactor modifies receptor activity. Binding reversibility was evaluated by adding an excess of competing ligand in the FRET assay and evaluating the displacement of the tracer with inhibitor. Binding of the PCCR-1 with the LBD caused reduction in FRET on antibody addition forming a GST (Glutathione S-transferases) tagged RORγ-antibody complex. The dissociation assay was performed using the jump dilution method with PCCR-1 at a concentration showing maximum binding potency or IC90. The dissociation was tested on addition of an excess of a competitive ligand, the tracer.
(Time-resolved FRET reads energy transfer from a long-lived donor to a nearby acceptor.)

The subject of test [2] is IL-17F cytokine from human PBMC. Briefly: IL-17F inhibition, human PBMC. Particulars: hPBMC, read-out: potency, IL-17F levels. In kind it is cell-based.
Test [3] relates to IL-17A in human whole blood. The test is described as follows: IL-17A inhibition, human whole blood, TCR stimulation. In kind it is cell-based. Conditions: TCR stimulatory conditions, n = 10. On the procedure: For whole blood assay the heparinized whole blood was diluted (1:1) with saline and added in 96-well plate pre-coated with human anti-CD3 mAb (10 µg/mL). Compound treatment was done for 30 min followed by co-stimulation with anti-CD28 mAb (2 µg/mL). After 48 h of incubation supernatant was used for IL-17 estimation by ELISA.

Take `CCn1c(C(C)(C)Oc2ccc(F)cc2F)nc2cc(NC(=O)Cc3ccc(S(=O)(=O)CC)cc3)ccc21` [PCCR-1]: in test [1] (after 290 min (~ 5 h)), the dissociation is listed as 50%. The “t1/2 (target residence time)” value in test [1] (human RORγ, jump dilution, PCCR-1 at IC90) turned out to be 4.84 h. This compound showed an absolute dissociation in test [1] (human, till 3 h of measurement) of 50%. Also, the IC50 in test [2] stood at 0.788 µM; in test [3], 3.05 µM.
